Assay type in all cases: in vivo
In data set [1] the test system is human prostatic carcinoma cell line PC-3. In words: Subcutaneously transplanted tumor of human prostatic carcinoma cell line PC-3 in nude mice. The note with it: PC-3 in BALB/c nude mice; for Average Tumor Weight: mean ± SD, n = 8. The procedure: (§1) Anti-tumor effect of cGAMP (cyclized GMP-AMP) was detected by employing a tumor-bearing mouse model to test inhibition effect of cGAMP on subcutaneously transplanted tumor.
(§2) Animals: Nude mouse BALB/c, male, with a body weight of 16-18 g, 4-6 weeks old, SPF grade, purchased from SLAC LABORATORY ANIMAL [certification number: SCXK (Shanghai) 2007-0005].
(§3) Dose: cGAMP was injected into abdominal cavities of mice, and two dose groups were set as followed: 10 mg/kg and 40 mg/kg.
(§4) Experimental Controls: • Negative control: brine solution • Positive control: 5-fluorouracil (5-FU), with a dose of 20 mg/kg
(§5) Administration Method: • Administration route: administration by intraperitoneal injection • Administration frequency: once a day for 14 days • Number of each group of animals: 8
(§6) Tumor cell lines: human gastric carcinoma cell line MNK-45, human lung adenocarcinoma cell line A549, human colorectal carcinoma cell line Lovo, human hepatocellular carcinoma cell line SMMC-7721, human prostatic carcinoma cell line PC-3 and human pancreatic carcinoma cell SW1990, purchased from the Cell Bank of the Chinese Academy of Sciences, are included in the above mentioned tumor cell lines.
(§7) 1. establishing a tumor-bearing mouse model and allowing intervention, including: cultivating and passaging cells, collecting cells in logarithmic phase, and making into a cell suspension with a concentration of 1.0×10^7/ml, injecting 0.2 ml of the cell suspension into the nude mice through their right arm armpits to make them get a tumor, and randomly dividing the nude mice into four groups: a negative control which is a group injected with brine through intraperitoneal injection, a 5-FU group which is a group injected with 5-FU through intraperitoneal injection, a cGMP-AMP low-dose group which is a group injected with 10 mg/kg of cGMP-AMP through intraperitoneal injection, and a cGMP-AMP high-dose group which is a group injected with 40 mg/kg of cGMP-AMP through intraperitoneal injection, administrating once a day for 14 days, then killing the nude mice and weighing the wts. Of tumor and calculating a tumor inhibition rate, which is calculated by the following equation: tumor inhibition rate[1−average tumor weight of experimental groups/average tumor weight of A group]×100%, wherein the experimental groups are B, C and D groups; separately establishing 6 subcutaneously implanted tumor models: human gastric carcinoma cell line MNK-45, human lung adenocarcinoma cell line A549, human colorectal carcinoma cell line Lovo, human hepatocellular carcinoma cell line SMMC-7721, human prostatic carcinoma cell line PC-3 and human pancreatic carcinoma cell SW1990, and observing the effect of cGAMP; and
(§8) 2. allowing statistical analysis: representing the data by x±s, processing the data with a software SPSS-10.0, analyzing by one-way ANOVA, comparing the significance of tumor weight differences among the groups, wherein the level of significance is a=0.05.

For data set [2], the system named is human gastric carcinoma cell line MNK-45. Briefly: Subcutaneously transplanted tumor of human gastric carcinoma cell line MNK-45 in nude mice. As to conditions: MNK-45 in BALB/c nude mice; for Average Tumor Weight: mean ± SD, n = 8. The procedure: as §1, §2, §3, §4, §5, §6, §7, §8
The subject of data set [3] is human colorectal carcinoma cell line Lovo. Briefly: Subcutaneously transplanted tumor of human colorectal carcinoma cell line Lovo in nude mice. As to conditions: Lovo in BALB/c nude mice; for Average Tumor Weight: mean ± SD, n = 8. The procedure:
as §1, §2, §3, §4, §5, §6, §7, §8

For data set [4], the system named is human hepatocellular carcinoma cell line SMMC-7721. In words: Subcutaneously transplanted tumor of human hepatocellular carcinoma cell line SMMC-7721 in nude mice. As to conditions: SMMC-7721 in BALB/c nude mice; for Average Tumor Weight: mean ± SD, n = 8. The procedure: as §1, §2, §3, §4, §5, §6, §7, §8
The subject of data set [5] is human lung adenocarcinoma cell line A549. Briefly: Subcutaneously transplanted tumor of human lung adenocarcinoma cell line A549 in nude mice. As to conditions: A549 in BALB/c nude mice; for Average Tumor Weight: mean ± SD, n = 8. The procedure: as §1, §2, §3, §4, §5, §6, §7, §8
The subject of data set [6] is human pancreatic carcinoma cell SW1990. Briefly: Subcutaneously transplanted tumor of human pancreatic carcinoma cell SW1990 in nude mice. The note with it: SW1990 in BALB/c nude mice; for Average Tumor Weight: mean ± SD, n = 8. The procedure: as §1, §2, §3, §4, §5, §6, §7, §8
For another data set, the system named is ICR mice. Briefly: Acute toxicity, single tail intravenous injection. The procedure: The materials are 20 of ICR mice, which are purchased from SLAC LABORATORY ANIMAL [certification number: SCXK (Shanghai) 2007-0005], are half male and half female, have body weights within 18-22 g, are fed with granular feedstuff and are free to find food and drink.
The method includes: subjecting the ICR mice to single tail intravenous injection of 10 ml/kg cGMAP based on their body weights, namely 2 g/kg, observing toxic reactions and deaths after administration within 14 days.

[7] abbreviates: 20 mg/kg intraperitoneal once a day for 14 days.
Setting [8] is: high dose 40 mg/kg intraperitoneal once a day for 14 days.
The mark [9] stands for this setting: low dose 10 mg/kg intraperitoneal once a day for 14 days.
Where [10] appears, read: single tail intravenous injection 2 g/kg (10 ml/kg).

In the case of `O=c1[nH]cc(F)c(=O)[nH]1` [5-FU, 5-fluorouracil, reference compound], the “Average Tumor Inhibition Rate” value in data set [1] (setting [7]) was determined as 76.3%; in data set [2] (setting [7]), 76.9%; in data set [3] (setting [7]), 71.7%; in data set [4] (setting [7]) it was 72.7%; in data set [5] (setting [7]) it was 70.3%; in data set [6] (setting [7]) it was 76.8%. Moreover, the “Average Tumor Weight” value in data set [1] (setting [7]) is given as 0.728 ± 0.102 (g); in data set [2] (setting [7]) it was 0.619 ± 0.214 (g); in data set [3] (setting [7]), 0.769 ± 0.101 (g); in data set [4] (setting [7]) it was 0.853 ± 0.082 (g); in data set [5] (setting [7]), 0.843 ± 0.210 (g); in data set [6] (setting [7]), 0.685 ± 0.086 (g).

In the case of `Nc1nc2c(ncn2[C@@H]2O[C@@H]3COP(=O)(O)O[C@H]4[C@@H](O)[C@H](n5cnc6c(N)ncnc65)O[C@@H]4COP(=O)(O)O[C@@H]2[C@@H]3O)c(=O)[nH]1` [cGAMP, cyclized GMP-AMP], the “Average Tumor Inhibition Rate” value in data set [1] (setting [8]) came to 69.6%; in data set [1] (setting [9]), 52.2%; in data set [2] (setting [8]) it was 61.3%; in data set [2] (setting [9]), 38.7%; in data set [3] (setting [8]), 55.7%; in data set [3] (setting [9]), 36.9%. Moreover, the “Average Tumor Inhibition Rate” value in data set [4] (setting [8]) is given as 65.2%; in data set [4] (setting [9]) it was 38.7%; in data set [5] (setting [8]), 59.4%; in data set [5] (setting [9]), 44.9%; in data set [6] (setting [8]) it was 67.4%; in data set [6] (setting [9]), 44.8%. Moreover, the “Average Tumor Weight” value in data set [1] (setting [8]) is 0.932 ± 0.148 g; in data set [1] (setting [9]), 1.467 ± 0.201 (g); in data set [2] (setting [8]), 1.037 ± 0.198 (g); in data set [2] (setting [9]) it was 1.641 ± 0.175 (g); in data set [3] (setting [8]), 1.204 ± 0.122 (g); in data set [3] (setting [9]) it was 1.714 ± 0.137 g. Also, the “Average Tumor Weight” value in data set [4] (setting [8]) was 1.089 ± 0.130 g; in data set [4] (setting [9]) it was 1.916 ± 0.174 (g); in data set [5] (setting [8]) it was 1.151 ± 0.121 (g); in data set [5] (setting [9]), 1.562 ± 0.102 (g); in data set [6] (setting [8]), 0.964 ± 0.109 g; in data set [6] (setting [9]), 1.631 ± 0.133 (g). Moreover, the “deaths within 14 days after administration” value in the data set on ICR mice (setting [10]) is recorded as “no death was observed”. In addition, in the data set on ICR mice (setting [10]), the “pathological changes in organs by naked eyes on dissection, 15th day” value was “no obvious pathological changes in organs were observed”. Also, in the data set with ICR mice (setting [10]), the “toxic reactions after the single tail intravenous injection” value is on record as “normal physiological activity was observed”. The “maximum tolerated dose of intravenous injection MTD” value with ICR mice (single tail intravenous injection, observed 14 days) was “not less than 2 g/kg”.

Values taken from patent US10092592B2, “Application of cyclic dinucleotide (cGAMP) in anti-tumor field” (FUDAN UNIVERSITY, priority 2014, dated 2018).
